Data taken from US7205305B2, “Inhibitors of p38” (Vertex Pharmaceuticals Incorporated, priority 1996, dated 2007).

How the values were obtained:
[1] = tested on: IL-1 production in LPS-stimulated PBMCs; assay: Inhibition of IL-1 production in LPS-stimulated PBMCs ("cell"); type: cell-based, human; conditions: Homo sapiens, PBMC
Protocol: (§1) Inhibitors were serially diluted in DMSO from a 20 mM stock. At least 6 serial dilutions were prepared. Then 4× inhibitor stocks were prepared by adding 4 μl of an inhibitor dilution to 1 ml of RPMI1640 medium/10% fetal bovine serum. The 4× inhibitor stocks contained inhibitor at concentrations of 80 μM, 32 μM, 12.8 μM, 5.12 μM, 2.048 μM, 0.819 μM, 0.328 μM, 0.131 μM, 0.052 μM, 0.021 μM etc. The 4× inhibitor stocks were pre-warmed at 37° C. until use.
(§2) Fresh human blood buffy cells were separated from other cells in a Vacutainer CPT from Becton & Dickinson (containing 4 ml blood and enough DPBS without Mg^2+/Ca^2+ to fill the tube) by centrifugation at 1500×g for 15 min. Peripheral blood mononuclear cells (PBMCs), located on top of the gradient in the Vacutainer, were removed and washed twice with RPMI1640 medium/10% fetal bovine serum. PBMCs were collected by centrifugation at 500×g for 10 min. The total cell number was determined using a Neubauer Cell Chamber and the cells were adjusted to a concentration of 4.8×10^6 cells/ml in cell culture medium (RPMI1640 supplemented with 10% fetal bovine serum).
(§3) We placed 100 μl of cell suspension or whole blood in each well of a 96-well cell culture plate. Then we added 50 μl of the 4× inhibitor stock to the cells. Finally, we added 50 μl of a lipopolysaccharide (LPS) working stock solution (16 ng/ml in cell culture medium) to give a final concentration of 4 ng/ml LPS in the assay. The total assay volume of the vehicle control was also adjusted to 200 μl by adding 50 μl cell culture medium. The PBMC cells or whole blood were then incubated overnight (for 12–15 hours) at 37° C./5% CO2 in a humidified atmosphere.
(§4) The next day the cells were mixed on a shaker for 3–5 minutes before centrifugation at 500×g for 5 minutes. Cell culture supernatants were harvested and analyzed by ELISA for levels of IL-1b (R & D Systems, Quantikine kits, #DBL50), TNF-α (BioSource, #KHC3012), IL-6 (Endogen, #EH2-IL6) and IL-8 (Endogen, #EH2-IL8) according to the instructions of the manufacturer. The ELISA data were used to generate dose-response curves from which IC50 values were derived.

[2] = tested on: IL-1 production in whole blood; assay: Inhibition of IL-1 production in LPS-stimulated whole blood ("WB"); type: cell-based, human; conditions: Homo sapiens
Protocol: as §1
(§5) Alternatively, whole blood containing an anti-coagulant was used directly in the assay.
as §3, §4

[3] = target: activated p38 (Homo sapiens, UniProt Q16539); assay: Inhibition of phosphorylation of EGF receptor peptide ("kinase"); type: biochemical; conditions: inhibition of phosphorylation of EGF receptor peptide by activated p38
Sequence of activated p38 (Q16539 whole entry): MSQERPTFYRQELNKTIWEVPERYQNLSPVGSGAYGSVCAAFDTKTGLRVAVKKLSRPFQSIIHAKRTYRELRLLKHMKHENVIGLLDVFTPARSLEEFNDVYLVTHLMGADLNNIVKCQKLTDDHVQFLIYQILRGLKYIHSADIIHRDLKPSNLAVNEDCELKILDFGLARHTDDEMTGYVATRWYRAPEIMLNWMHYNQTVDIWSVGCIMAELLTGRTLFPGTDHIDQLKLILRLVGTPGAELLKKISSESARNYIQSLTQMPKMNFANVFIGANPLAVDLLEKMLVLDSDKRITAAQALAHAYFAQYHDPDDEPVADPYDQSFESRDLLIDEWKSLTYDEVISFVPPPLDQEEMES
Outline: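 Activated p38 was preincubated with inhibitor for 15 min at room temperature in 100 mM HEPES pH 7.6, 10 mM MgCl2, 25 mM β-glycerophosphate, 10% glycerol, 5% DMSO final. Reaction used 200 μM EGF receptor peptide and 100 μM ATP for 30 min at 30° C. TFA-quenched phosphopeptide was quantified by reverse-phase HPLC.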

[4] = tested on: TNF production in whole blood; assay: Inhibition of TNF production in LPS-stimulated whole blood ("WB"); type: cell-based, human; conditions: Homo sapiens
Protocol: as §1, §5, §3, §4

[5] = tested on: IL-6 production in whole blood; assay: Inhibition of IL-6 production in LPS-stimulated whole blood ("WB"); type: cell-based, human; conditions: Homo sapiens
Protocol: as §1, §5, §3, §4

[6] = tested on: TNF production in LPS-stimulated PBMCs; assay: Inhibition of TNF production in LPS-stimulated PBMCs ("cell"); type: cell-based, human; conditions: Homo sapiens, PBMC
Protocol: as §1, §2, §3, §4

Structure (SMILES) | IC50 [1] [nM] | IC50 [2] [nM] | IC50 [3] [nM] | IC50 [4] [nM] | IC50 [5] [nM] | IC50 [6] [nM]
O=C1NCN2N=C(Sc3ccccc3C(=O)O)C=CC2=C1c1c(Cl)cccc1Cl [Compound 104] | 100 to 500 | ≥ 500 | 100 to 1000 | ≥ 500 | ≥ 500 | 100 to 500
O=C1NCN2N=C(Sc3ccc(F)cc3)C=CC2=C1c1cc2c(cc1Cl)OCO2 [Compound 129] | ≤ 100 | 250 to 500 | ≤ 100 | ≥ 500 | 250 to 500 | ≤ 100
Cc1ccc(SC2=NN3CNC(=O)C(c4c(Cl)cccc4Cl)=C3C=C2)c(C)c1 [Compound 113] | ≤ 100 | ≥ 500 | ≤ 100 | ≥ 500 | ≥ 500 | 100 to 500
NC(=O)C(c1ccc(Sc2ccccc2)cn1)c1c(Cl)cccc1Cl (stereo not drawn) [Compound 201] | ≥ 500 | ≥ 500 | 100 to 1000 | ≤ 250 | ≥ 500 | ≥ 500
O=C1NCN2N=C(Sc3ccccc3O)C=CC2=C1c1c(Cl)cccc1Cl [Compound 114] | ≤ 100 | 250 to 500 | ≤ 100 | 250 to 500 | ≤ 250 | ≤ 100
Nc1ccc(Cl)c(C2=C3C=CC(Sc4ccc(F)cc4)=NN3CNC2=O)c1Cl [Compound 125] | ≤ 100 | ≥ 500 | ≤ 100 | ≥ 500 | ≥ 500 | ≤ 100
O=C1C(c2c(Cl)cccc2Cl)=C2C=CC(Sc3ccc(F)cc3)=NN2CN1CO [Compound 138] | ≤ 100 | ≥ 500 | 100 to 1000 | ≥ 500 | ≤ 250 | 100 to 500
O=C1NCN2N=C(Sc3ccc(F)cc3Cl)C=CC2=C1c1c(Cl)cccc1Cl [Compound 127] | ≤ 100 | 250 to 500 | ≤ 100 | 250 to 500 | ≤ 250 | ≤ 100
O=C(O)c1ccccc1Sc1ccc2c(-c3c(Cl)cccc3Cl)c(=O)ncn2n1 [Compound 27] | ≥ 500 | ≥ 500 | 100 to 1000 | ≥ 500 | ≥ 500 | ≥ 500
COc1ccc(C2=C3C=CC(Sc4ccc(F)cc4)=NN3CNC2=O)c(Cl)c1OC [Compound 121] | ≤ 100 | ≥ 500 | ≤ 100 | ≥ 500 | ≥ 500 | 100 to 500
Cc1ccccc1-c1cccc(C(C(N)=O)c2c(F)cccc2Cl)n1 (stereo not drawn) [Compound 335] | ≥ 500 | ≥ 500 | 100 to 1000 | ≥ 500 | ≥ 500 | ≥ 500
Cc1cc(F)ccc1-c1cccc(N(C(N)=O)c2cc3c(cc2Cl)OCO3)n1 [Compound 411] | ≤ 100 | ≥ 500 | ≤ 100 | ≥ 500 | ≥ 500 | ≤ 100
CNCc1ccccc1-c1cccc(C(C(N)=O)c2c(Cl)cccc2Cl)n1 (stereo not drawn) [Compound 303] | ≥ 500 | ≥ 500 | ≥ 1000 | ≥ 500 | ≥ 500 | ≥ 500
Cc1ccccc1-c1cccc(C(C(N)=O)c2c(Cl)cccc2Cl)n1 (stereo not drawn) [Compound 305] | ≤ 100 | ≥ 500 | ≤ 100 | ≥ 500 | ≥ 500 | ≥ 500
O=C1NCN2N=C(Sc3ccccc3Br)C=CC2=C1c1c(Cl)cccc1Cl [Compound 109] | ≤ 100 | ≥ 500 | ≤ 100 | ≥ 500 | 250 to 500 | ≤ 100
O=c1ncn2nc(Sc3ccccc3O)ccc2c1-c1c(Cl)cccc1Cl [Compound 33] | 100 to 500 | ≥ 500 | 100 to 1000 | ≥ 500 | ≥ 500 | 100 to 500
